The text below walks through data of ChEMBL document CHEMBL3822432, “Antibacterial and anticancer activity of a series of novel peptides incorporating cyclic tetra-substituted C(α) amino acids” (Bioorg Med Chem, 2016).

≈ marks a conversion by molar mass, not a printed value. Where only a bound is given, the exact number is not on record here.

Assay [1] concerns Pseudomonas aeruginosa. Put plainly: Antibacterial activity against Pseudomonas aeruginosa Boston 41501 ATCC 27853 by two fold serial dilution method. Type of assay: functional.
In assay [2] the test system is Klebsiella aerogenes. Put plainly: Antibacterial activity against carbapenem-resistant Enterobacter aerogenes NCDC819-56 ATCC 13048 by two fold serial dilution method. Format: functional.
Assay [3] concerns Salmonella enterica subsp. enterica serovar Typhimurium str. LT2. Put plainly: (§1) Antibacterial activity against Salmonella enterica LT2 Typhimurium ATCC 15277 by two fold serial dilution method. Type of assay: functional.
For assay [4], the system named is Acinetobacter baumannii. Put plainly: Antibacterial activity against Acinetobacter baumannii B5W71 ATCC 15149 by two fold serial dilution method. Type of assay: functional.
The nature of assay [5]: Antiproliferative activity against human PC3 cells after 72 hrs by Celltiter-Glo luminescent cell viability assay. Type of assay: functional, cell-based. The following applies: PC-3, 72 h. For orientation: In ATP-based viability assays light output follows the ATP content of the culture.
The nature of assay [6]: Antibacterial activity against Yersinia pestis CO92 NR641 by two fold serial dilution method. Format: functional.
Another assay relates to CFPAC-1. Put plainly: Antiproliferative activity against human CFPAC-1 cells after 72 hrs by Celltiter-Glo luminescent cell viability assay. As to conditions: CFPAC-1, 72 h. Format: functional, cell-based.
The next assay concerns Enterococcus faecium. Put plainly: Potency index, ratio of Ac-GF-Tic-Oic-GK-Tic-Oic-GF-Tic-Oic-GK-Tic-KKKK-CONH2 MIC to compound MIC for Enterococcus faecium. Format: functional.
The subject of assay [7] is Burkholderia pseudomallei. The assay is described as follows: Antibacterial activity against Burkholderia pseudomallei AHS 1 NCTC 8016 by two fold serial dilution method. Type of assay: functional.
The test system of the next assay is A498. Put plainly: Antiproliferative activity against human A498 cells after 72 hrs by Celltiter-Glo luminescent cell viability assay. Type of assay: functional, cell-based. As to conditions: A498, 72 h.
A short description of assay [8]: Antiproliferative activity against human UACC62 cells after 72 hrs by Celltiter-Glo luminescent cell viability assay. Format: functional, cell-based. The following applies: UACC-62, 72 h.
Assay [9] can be described thus: Antiproliferative activity against human COLO205 cells after 72 hrs by Celltiter-Glo luminescent cell viability assay. Type of assay: functional, cell-based. As to conditions: COLO 205, 72 h.
Assay [10] concerns Mycobacterium tuberculosis. The assay is described as follows: Antibacterial activity against Mycobacterium tuberculosis H37Ra ATCC 2517 by two fold serial dilution method. Format: functional.
Assay [11] in a line: as §1. Format: functional.
A further assay deals with Enterococcus faecalis. Put plainly: Antibacterial activity against Enterococcus faecalis Portland ATCC 29212 by two fold serial dilution method. Type of assay: functional. The following applies: ATCC 29212 Portland.
Assay [12] is described as follows: Antibacterial activity against Clostridium difficile VIP 10463 ATCC 43255 by two fold serial dilution method. The following applies: Clostridioides difficile. Type of assay: functional, Clostridium difficile ATCC 43255.
Assay [13] is described as follows: Antiproliferative activity against human IGROV1 cells after 72 hrs by Celltiter-Glo luminescent cell viability assay. Format: functional, cell-based. As to conditions: IGROV-1, 72 h.
The subject of assay [14] is Klebsiella aerogenes. The assay is described as follows: Potency index, ratio of Ac-GF-Tic-Oic-GK-Tic-Oic-GF-Tic-Oic-GK-Tic-KKKK-CONH2 MIC to compound MIC for carbapenem-resistant Enterobacter aerogenes NCDC819-56 ATCC 13048. Type of assay: functional. The following applies: pooled result: one value given for 3 cell lines, strains, targets or settings.
Assay [15] can be described thus: Antiproliferative activity against human DLD1 cells after 72 hrs by Celltiter-Glo luminescent cell viability assay. Type of assay: functional, cell-based. The following applies: DLD-1, 72 h.
Assay [16] can be described thus: Antiproliferative activity against human MIAPaCa2 cells after 72 hrs by Celltiter-Glo luminescent cell viability assay. Type of assay: functional, cell-based. As to conditions: MIA PaCa-2, 72 h.
For the next assay, the system named is NCI-H69. Put plainly: Antiproliferative activity against human NCI-H69 cells after 72 hrs by Celltiter-Glo luminescent cell viability assay. Type of assay: functional, cell-based. The following applies: NCI-H69, 72 h.
Assay [17] in a line: Antibacterial activity against carbapenem-resistant Klebsiella pneumoniae K6 ATCC 700603 by two fold serial dilution method. Type of assay: functional, Klebsiella pneumoniae 700603.
Another assay deals with RL. The assay is described as follows: Antiproliferative activity against human RL cells after 72 hrs by Celltiter-Glo luminescent cell viability assay. Type of assay: functional, cell-based.
The subject of the next assay is MCF7. The assay is described as follows: Antiproliferative activity against human MCF7 cells after 72 hrs by Celltiter-Glo luminescent cell viability assay. Format: functional, cell-based. As to conditions: MCF7, 72 h.
The subject of the next assay is A549. Put plainly: Antiproliferative activity against human A549 cells after 72 hrs by Celltiter-Glo luminescent cell viability assay. The following applies: A549, 72 h. Type of assay: functional, cell-based.
In assay [18] the test system is Staphylococcus aureus. The assay is described as follows: Antibacterial activity against methicillin-resistant Staphylococcus aureus USA 300 NRS 384 by two fold serial dilution method. Type of assay: functional.
In assay [19] the test system is Staphylococcus aureus. The assay is described as follows: Antibacterial activity against Staphylococcus aureus Seattle 1945 ATCC 25923 by two fold serial dilution method. Type of assay: functional.
For assay [20], the system named is Pseudomonas aeruginosa. Put plainly: Potency index, ratio of Ac-GF-Tic-Oic-GK-Tic-Oic-GF-Tic-Oic-GK-Tic-KKKK-CONH2 MIC to compound MIC for Pseudomonas aeruginosa Boston 41501 ATCC 27853. Type of assay: functional.
The subject of assay [21] is Acinetobacter baumannii. The assay is described as follows: Potency index, ratio of Ac-GF-Tic-Oic-GK-Tic-Oic-GF-Tic-Oic-GK-Tic-KKKK-CONH2 MIC to compound MIC for Acinetobacter baumannii B5W71 ATCC 15149. Format: functional.
Assay [22] in a line: Antibacterial activity against Bacillus anthracis Ames NR-3838 by two fold serial dilution method. Format: functional, Bacillus anthracis str. Ames.
Another assay has as its system Streptococcus pneumoniae. Put plainly: Antibacterial activity against Streptococcus pneumoniae 262 ATCC 49619 by two fold serial dilution method. Type of assay: functional.
Assay [23] is described as follows: Antibacterial activity against Francisella tularensis SCHU S4 NR-643 by two fold serial dilution method. Format: functional.
Another assay deals with Neisseria gonorrhoeae. Put plainly: Antibacterial activity against Neisseria gonorrhoeae F-18 ATCC 49226 by two fold serial dilution method. Format: functional.

For GENTAMICIN, the MIC (usually the smallest concentration in the dilution series that meets the test's criterion for growth inhibition) is 8.3 µM in the assay with Pseudomonas aeruginosa [1], 1.04 µM against Klebsiella aerogenes [2], 2.09 µM in assay [3] and 2.09 µM with Acinetobacter baumannii [4].
As to `CC(=O)NCC(=O)N[C@@H](Cc1ccccc1)C(=O)NC1(C(=O)NCC(=O)N2Cc3ccccc3CC2C(=O)N[C@H](CCCCN)C(=O)NC2(C(=O)NCC(=O)N3Cc4ccccc4CC3C(=O)N[C@H](Cc3ccccc3)C(=O)NC3(C(=O)NCC(=O)N4Cc5ccccc5CC4C(=O)NCC(=O)N[C@H](CCCCN)C(=O)N4Cc5ccccc5CC4C(=O)N[C@H](CCCCN)C(=O)N[C@H](CCCCN)C(=O)N[C@H](CCCCN)C(=O)N[C@H](CCCCN)C(N)=O)CCCCC3)CCCCC2)CCCCC1` (stereo partly drawn), the IC50 (in [5]; in the assay with CFPAC-1; in the assay on A498; in assay [8]; in assay [9]; in assay [13]) was over 7.5 µM in each case. The IC50 (in general, the concentration that gives 50% inhibition) in assay [15] is over 7.5 µM; in [16], over 7.5 µM; in the assay with NCI-H69, over 7.5 µM; in the assay on RL, 6.8 µM; in the assay with MCF7 it was over 7.5 µM; with A549 it was over 7.5 µM. For the same molecule, the MIC in [6] is over 43 µM; in assay [7] it was over 43 µM; in the assay on Pseudomonas aeruginosa [1], 10.3 µM (≈ 25 µg/mL); in assay [10], 10.3 µM (≈ 25 µg/mL); in the assay on Klebsiella aerogenes [2], over 43 µM; in assay [11], 5.17 µM (≈ 12.5 µg/mL). Also, the MIC was over 43 µM against Enterococcus faecalis; 2.58 µM (≈ 6.24 µg/mL) in assay [12]; over 43 µM in assay [17]; over 43 µM against Staphylococcus aureus [18]; over 43 µM with Staphylococcus aureus [19]; over 45 µM in the assay on Acinetobacter baumannii [4]. For the same molecule, the MIC is 10.3 µM (≈ 25 µg/mL) in assay [22], over 43 µM with Streptococcus pneumoniae, 20.7 µM (≈ 50 µg/mL) in [23] and 41.3 µM (≈ 100 µg/mL) in the assay on Neisseria gonorrhoeae. Besides, the Ratio with Enterococcus faecium was 4.3; in the assay on Klebsiella aerogenes [14], 1.075; with Pseudomonas aeruginosa [20], 0.2582; with Acinetobacter baumannii [21], 17.2.
With `CC(=O)NCC(=O)N[C@H](Cc1ccccc1)C(=O)NC1(C(=O)NCC(=O)N2C(C(=O)N[C@@H](CCCCN)C(=O)NC3(C(=O)NCC(=O)N4C(C(=O)N[C@@H](Cc5ccccc5)C(=O)NC5(C(=O)NCC(=O)N6C(C(=O)NCC(=O)N[C@@H](CCCCN)C(=O)N7C(C(=O)N[C@H](CCCCN)C(=O)N[C@H](CCCCN)C(=O)N[C@H](CCCCN)C(=O)N[C@H](CCCCN)C(N)=O)CC8CCCCC87)CC7CCCCC76)CCCCC5)CC5CCCCC54)CCCCC3)CC3CCCCC32)CCCCC1` (stereo in doubt), the IC50 (in assay [5]; with CFPAC-1; in the assay on A498; in assay [8]; in assay [9]; in [13]) was over 7.5 µM in each case. The IC50 in assay [15] was over 7.5 µM; in [16] it was over 7.5 µM; with NCI-H69, over 7.5 µM; in the assay with RL, 6.7 µM; in the assay on MCF7, over 7.5 µM; with A549, over 7.5 µM. The MIC is over 42 µM in assay [6]; over 42 µM in [7]; 20.9 µM (≈ 50 µg/mL) against Pseudomonas aeruginosa [1]; 20.9 µM (≈ 50 µg/mL) in [10]; over 42 µM in the assay on Klebsiella aerogenes [2]; 41.9 µM (≈ 100 µg/mL) in [11]. The MIC against Enterococcus faecalis was over 42 µM; in assay [12], 2.62 µM (≈ 6.26 µg/mL); in assay [17], over 42 µM; with Staphylococcus aureus [18], over 42 µM; against Staphylococcus aureus [19] it was over 42 µM; in the assay on Acinetobacter baumannii [4] it was 20.9 µM (≈ 50 µg/mL). In addition, the MIC in assay [22] was 20.9 µM (≈ 50 µg/mL); in the assay with Streptococcus pneumoniae, over 42 µM; in assay [23] it was 20.9 µM (≈ 50 µg/mL); in the assay with Neisseria gonorrhoeae it was 20.9 µM (≈ 50 µg/mL). Further, the Ratio in the assay on Enterococcus faecium was found to be 4.2; in the assay with Klebsiella aerogenes [14], 1.05; in the assay with Pseudomonas aeruginosa [20] it was 0.5232; in the assay with Acinetobacter baumannii [21], 8.372.
